Results taken from US7550483B2, “Amorphous salt of 4-(3-chloro-4-(cyclopropylaminocarbonyl)aminophenoxy)-7-methoxy-6-quinolinecarboxamide and process for preparing the same” (Eisai R&D Management Co., Ltd., priority 2005, dated 2009).

Columns and labels:
[1] = Test for measuring dissolution rate (rotating disk method); format: physicochemical; conditions: 2nd fluid pH 6.8, 500 mL, 37° C., 50 rpm, 1 cm^2
Protocol: The dissolution rates of the following crystal and amorphous compounds were measured under the conditions described below by the rotating disk method (see, J. H. Woods et al., J. Pharm. Soc., 54, 1068 (1955)): a crystalline form of the free carboxamide obtained in Preparation Example 1, an amorphous form of the methanesulfonate of the carboxamide obtained in Example 1 and an amorphous form of the ethanesulfonate obtained in Example 2. The dissolution rates were calculated based on a range in which linearity was maintained in the relation between concentration and time at the initial stage of dissolution.
(Rotating disk method conditions)
Solvent: “2nd fluid” (pH 6.8, 500 mL) as described in Japanese Pharmacopoeia 14th Edition, General Tests (disintegration test)
Disk rotation speed: 50 rpm
Area of powder contacting with solvent on disk: 1 cm^2
Sampling amount: approx. 1 mL
Column: YMC Pack ProC18 (YMC Co., Ltd.; inner diameter 4.6 mm, column length 150 mm, particle size 5 μm)
Column temperature: 40° C.
Concentration of solution B: 20%
Detection: ultraviolet absorbance photometer (wavelength: 252 nm)
Temperature of auto sampler: 25° C.

[2] = system: angiogenesis; conditions: free-form product; WO02/32872 Example 368; cited from earlier work
[3] = molecular target: c-Kit kinase (Homo sapiens, UniProt P10721); conditions: AACR 2004 proceedings; WO2004/080462; cited from earlier work
Chain of c-Kit kinase (P10721 26-976): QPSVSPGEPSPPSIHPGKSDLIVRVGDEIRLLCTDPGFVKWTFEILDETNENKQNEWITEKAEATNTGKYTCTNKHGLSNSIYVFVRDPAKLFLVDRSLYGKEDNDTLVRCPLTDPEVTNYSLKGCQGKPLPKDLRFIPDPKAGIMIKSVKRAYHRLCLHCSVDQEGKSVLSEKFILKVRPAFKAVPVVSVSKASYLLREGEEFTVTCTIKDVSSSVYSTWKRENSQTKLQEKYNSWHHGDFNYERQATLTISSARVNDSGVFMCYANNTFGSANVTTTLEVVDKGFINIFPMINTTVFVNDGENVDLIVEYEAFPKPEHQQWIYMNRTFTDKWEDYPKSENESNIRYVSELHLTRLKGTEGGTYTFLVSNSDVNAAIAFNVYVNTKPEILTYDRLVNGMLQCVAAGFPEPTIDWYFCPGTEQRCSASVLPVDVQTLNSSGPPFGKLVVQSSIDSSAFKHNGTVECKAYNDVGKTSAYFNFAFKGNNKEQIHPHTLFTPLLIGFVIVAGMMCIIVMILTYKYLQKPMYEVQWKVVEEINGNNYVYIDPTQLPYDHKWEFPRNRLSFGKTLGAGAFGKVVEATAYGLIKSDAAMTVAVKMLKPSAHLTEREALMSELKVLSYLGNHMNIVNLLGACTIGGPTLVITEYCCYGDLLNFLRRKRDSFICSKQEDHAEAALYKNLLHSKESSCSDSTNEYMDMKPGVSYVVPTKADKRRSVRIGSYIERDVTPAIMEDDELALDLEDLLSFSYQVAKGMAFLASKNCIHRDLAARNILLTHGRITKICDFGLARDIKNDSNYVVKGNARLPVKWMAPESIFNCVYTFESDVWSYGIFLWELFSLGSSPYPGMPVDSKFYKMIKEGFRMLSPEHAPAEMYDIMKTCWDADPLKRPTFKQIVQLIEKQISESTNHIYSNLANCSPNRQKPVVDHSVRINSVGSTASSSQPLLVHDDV

| dissolution rate [1] [μg/min/cm^2] | Structure (SMILES) | angiogenesis inhibition [2] | inhibitory action for c-Kit kinase [3] |
| --- | --- | --- | --- |
| 25.1 | CCS(=O)(=O)O.COc1cc2nccc(Oc3ccc(NC(=O)NC4CC4)c(Cl)c3)c2cc1C(N)=O [esylate amorphous, An amorphous form of the ethanesulfonate of 4-(3-chloro-4-(cyclopropylaminocarbonyl)aminophenoxy)-7-methoxy-6-quinolinecarboxamide] |  |  |
| 1.1 | COc1cc2nccc(Oc3ccc(NC(=O)NC4CC4)c(Cl)c3)c2cc1C(N)=O [free form, 4-(3-chloro-4-(cyclopropylaminocarbonyl)aminophenoxy)-7-methoxy-6-quinolinecarboxamide] | excellent angiogenesis inhibition | strong inhibitory action |
| 22.7 | COc1cc2nccc(Oc3ccc(NC(=O)NC4CC4)c(Cl)c3)c2cc1C(N)=O.CS(=O)(=O)O [mesylate amorphous, An amorphous form of the methanesulfonate of 4-(3-chloro-4-(cyclopropylaminocarbonyl)aminophenoxy)-7-methoxy-6-quinolinecarboxamide] |  |  |
